# Assay results reported in publication PMC2699550, “Bacterial Ortholog of Mammalian Translocator Protein (TSPO) with Virulence Regulating Activity” (PLoS ONE, 2009).
# Target: T1, bacterial TSPO (P. fluorescens MF37 TSPO)
# T1 construct: native protein in bacterial membranes; 438 bp fragment encoding 146 residues; theoretical 17 kDa, 37 kDa band on SDS-PAGE, apparent dimer
# Test: [3H]-PK […] saturation binding, Scatchard, bacterial membranes
# Assay type: biochemical, Pseudomonas fluorescens
# Conditions: labelled compound; native membranes, 50 mM Tris-HCl pH 7.4; 0.6 to 59 nM tracer; non-specific with 30 µM PK 11195
smiles,measurement,value
CCC(C)N(C)C(=O)c1cc2ccccc2c(-c2ccccc2Cl)n1 (stereo not shown) [PK 11195],Kd,0.92 nM
